Source: patent publication US7074789B2, “Kinase inhibitors” (Amgen Inc., priority 1999, dated 2006)
pIC50: −log10 of the molar value.

Key:
Format in all cases: biochemical
[1] = biological target: T1, Tek (Homo sapiens, UniProt Q02763); assay: Kinase inhibition assay (33P transfer), Tek; settings: read-out: Tek-1
T1 construct: Kinases are expressed as either kinase domains or full length constructs; made in house
How it was run: (§1)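 Using immobilised substrate copolymers (poly(Glu,Tyr) 4:1; poly(Arg,Ser) 3:1) and [33P]ATP, purified fusion kinases were allowed to react; plates were then rinsed in 0.5% phosphoric acid and counted in a scintillation detector. Half-maximal inhibition of label transfer defines IC50.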

[2] = biological target: T2, PDGFRB (Homo sapiens, UniProt P09619); assay: Kinase inhibition assay (33P transfer), PDGFRB; settings: read-out: PDGFRB-1
T2 construct: Kinases are expressed as either kinase domains or full length constructs; made in house

[3] = biological target: T3, ErbB2 (Homo sapiens, UniProt P04626); assay: Kinase inhibition assay (33P transfer), ErbB2; settings: read-out: ErbB2-2
T3 construct: Kinases are expressed as either kinase domains or full length constructs; made in house
How it was run: as §1

[4] = biological target: T4, Fyn (Homo sapiens, UniProt P06241); assay: Kinase inhibition assay (33P transfer), Fyn; settings: read-out: Fyn-1
T4 construct: Kinases are expressed as either kinase domains or full length constructs; made in house
How it was run: as §1

[5] = biological target: T5, FGFR1 (Homo sapiens, UniProt P11362); assay: Kinase inhibition assay (33P transfer), FGFR1; settings: read-out: FGFR1-1
T5 construct: Kinases are expressed as either kinase domains or full length constructs; made in house

[6] = biological target: T6, IGFR-1 (Homo sapiens, UniProt P08069); assay: Kinase inhibition assay, IGFR-1 (Table 2); settings: Table 2, kinase inhibition class
T6 construct: Kinases are expressed as either kinase domains or full length constructs; made in house

[7] = biological target: T7, Lck (Homo sapiens, UniProt P06239); assay: Kinase inhibition assay (33P transfer), Lck; settings: read-out: Lck-1
T7 construct: Kinases are expressed as either kinase domains or full length constructs; made in house
How it was run: (§2)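 Each kinase, expressed as a GST- or polyHis-tagged domain or full-length protein, phosphorylated plate-attached poly(Glu,Tyr) 4:1 or poly(Arg,Ser) 3:1 using 33P-ATP. Bound radioactivity was measured by scintillation after a 0.5% phosphoric acid wash.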

[8] = biological target: T8, Ret-1 (Homo sapiens, UniProt P07949); assay: Kinase inhibition assay (33P transfer), Ret; settings: Table 6, Ret-1 kinase inhibition class
T8 construct: Kinases are expressed as either kinase domains or full length constructs; made in house

[9] = biological target: T9, Hck-1 (Homo sapiens, UniProt P08631); assay: Kinase inhibition assay (33P transfer), Hck; settings: Table 6, Hck-1 kinase inhibition class
T9 construct: Kinases are expressed as either kinase domains or full length constructs; made in house

[10] = biological target: T10, c-Met (Homo sapiens, UniProt P08581); assay: Kinase inhibition assay (33P transfer), c-Met; settings: Table 2, kinase inhibition class; read-out: Met-1
T10 construct: Kinases are expressed as either kinase domains or full length constructs; made in house
How it was run: as §1

[11] = biological target: T11, Zap-70 (Homo sapiens, UniProt P43403); assay: Kinase inhibition assay (33P transfer), Zap-70; settings: read-out: Zap-1
T11 construct: Kinases are expressed as either kinase domains or full length constructs; made in house
T11 sequence (P43403 1-619): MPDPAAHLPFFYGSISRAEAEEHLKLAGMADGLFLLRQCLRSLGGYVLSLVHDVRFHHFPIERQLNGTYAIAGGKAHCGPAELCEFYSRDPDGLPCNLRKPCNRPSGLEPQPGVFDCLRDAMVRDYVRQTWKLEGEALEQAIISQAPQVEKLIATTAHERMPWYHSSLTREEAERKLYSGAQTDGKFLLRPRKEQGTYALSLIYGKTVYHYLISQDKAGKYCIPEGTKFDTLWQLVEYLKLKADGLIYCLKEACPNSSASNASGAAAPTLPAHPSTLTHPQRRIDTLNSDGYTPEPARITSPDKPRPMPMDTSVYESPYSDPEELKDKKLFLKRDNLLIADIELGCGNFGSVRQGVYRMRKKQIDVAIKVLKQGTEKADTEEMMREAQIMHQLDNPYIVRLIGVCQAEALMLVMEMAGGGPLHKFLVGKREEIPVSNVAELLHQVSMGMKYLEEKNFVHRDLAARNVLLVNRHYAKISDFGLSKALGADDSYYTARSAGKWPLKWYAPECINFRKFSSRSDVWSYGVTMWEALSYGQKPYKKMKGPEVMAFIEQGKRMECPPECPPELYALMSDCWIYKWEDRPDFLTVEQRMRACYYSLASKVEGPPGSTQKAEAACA
How it was run: as §2

[12] = biological target: T12, Src (Homo sapiens, UniProt P12931); assay: Kinase inhibition assay (33P transfer), Src; settings: Table 6, Src-1 kinase inhibition class
T12 construct: Kinases are expressed as either kinase domains or full length constructs; made in house
How it was run: as §1

[13] = biological target: T13, Flt-1 (Homo sapiens, UniProt P17948); assay: Kinase inhibition assay (33P transfer), Flt-1
T13 construct: Kinases are expressed as either kinase domains or full length constructs; made in house
How it was run: as §1

[14] = biological target: T14, EGFR (Homo sapiens, UniProt P00533); assay: Kinase inhibition assay (33P transfer), EGFR; settings: Table 2, kinase inhibition class; read-out: EGFR-1
T14 construct: Kinases are expressed as either kinase domains or full length constructs; made in house
How it was run: as §1

[15] = biological target: T15, Kdr (Homo sapiens, UniProt P35968); assay: Kinase inhibition assay (33P transfer), Kdr; settings: read-out: KDR-1
T15 construct: Kinases are expressed as either kinase domains or full length constructs; made in house
How it was run: as §2

[16] = biological target: T16, Itk (Homo sapiens, UniProt Q08881); assay: Kinase inhibition assay (33P transfer), Itk; settings: read-out: Itk-1
T16 construct: Kinases are expressed as either kinase domains or full length constructs; made in house
T16 sequence (Q08881 1-620): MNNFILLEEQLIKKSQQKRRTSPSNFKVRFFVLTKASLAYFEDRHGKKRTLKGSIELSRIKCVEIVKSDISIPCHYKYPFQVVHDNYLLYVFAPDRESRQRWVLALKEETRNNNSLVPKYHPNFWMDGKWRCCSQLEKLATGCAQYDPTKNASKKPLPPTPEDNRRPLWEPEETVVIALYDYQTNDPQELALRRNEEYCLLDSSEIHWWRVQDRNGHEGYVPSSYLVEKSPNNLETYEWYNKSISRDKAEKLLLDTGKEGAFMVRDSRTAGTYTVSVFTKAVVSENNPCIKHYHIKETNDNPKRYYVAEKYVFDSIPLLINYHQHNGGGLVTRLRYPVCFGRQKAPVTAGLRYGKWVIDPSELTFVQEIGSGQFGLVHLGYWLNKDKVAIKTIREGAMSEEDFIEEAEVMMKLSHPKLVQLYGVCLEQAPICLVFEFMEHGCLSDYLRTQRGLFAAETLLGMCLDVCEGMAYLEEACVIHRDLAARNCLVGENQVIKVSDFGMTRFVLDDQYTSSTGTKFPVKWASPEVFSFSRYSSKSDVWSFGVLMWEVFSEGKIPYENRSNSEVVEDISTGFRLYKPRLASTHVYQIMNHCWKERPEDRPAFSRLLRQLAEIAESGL
How it was run: as §1

[17] = biological target: T17, Lyn (Homo sapiens, UniProt P07948); assay: Kinase inhibition assay (33P transfer), Lyn; settings: Table 6, Lyn-1 kinase inhibition class
T17 construct: Kinases are expressed as either kinase domains or full length constructs; made in house
How it was run: as §1

[18] = biological target: T18, ErbB4 (Homo sapiens, UniProt Q15303); assay: Kinase inhibition assay (33P transfer), ErbB4; settings: read-out: ErbB4-1
T18 construct: Kinases are expressed as either kinase domains or full length constructs; made in house

[19] = biological target: T19, AKT (Homo sapiens, UniProt Q9Y243); assay: Kinase inhibition assay (33P transfer), AKT; settings: Table 2, kinase inhibition class; read-out: AKT3-1
T19 construct: Kinases are expressed as either kinase domains or full length constructs; made in house
How it was run: as §2

T4 sequence (P06241 whole entry, species assumed, the tested form may be a part): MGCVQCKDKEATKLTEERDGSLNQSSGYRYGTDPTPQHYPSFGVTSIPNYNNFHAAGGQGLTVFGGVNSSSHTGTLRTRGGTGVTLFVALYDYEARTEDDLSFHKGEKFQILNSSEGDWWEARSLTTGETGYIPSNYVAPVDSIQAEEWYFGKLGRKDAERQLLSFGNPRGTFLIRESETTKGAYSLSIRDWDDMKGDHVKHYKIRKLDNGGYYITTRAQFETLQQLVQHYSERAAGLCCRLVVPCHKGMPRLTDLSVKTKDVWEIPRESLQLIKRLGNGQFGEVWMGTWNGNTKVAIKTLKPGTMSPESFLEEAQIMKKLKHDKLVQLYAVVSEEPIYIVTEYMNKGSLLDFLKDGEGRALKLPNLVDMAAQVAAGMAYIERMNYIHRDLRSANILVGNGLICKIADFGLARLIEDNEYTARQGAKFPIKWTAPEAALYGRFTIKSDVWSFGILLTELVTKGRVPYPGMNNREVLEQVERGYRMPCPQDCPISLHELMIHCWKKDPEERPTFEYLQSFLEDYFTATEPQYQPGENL
T12 sequence (P12931 whole entry, species assumed, the tested form may be a part): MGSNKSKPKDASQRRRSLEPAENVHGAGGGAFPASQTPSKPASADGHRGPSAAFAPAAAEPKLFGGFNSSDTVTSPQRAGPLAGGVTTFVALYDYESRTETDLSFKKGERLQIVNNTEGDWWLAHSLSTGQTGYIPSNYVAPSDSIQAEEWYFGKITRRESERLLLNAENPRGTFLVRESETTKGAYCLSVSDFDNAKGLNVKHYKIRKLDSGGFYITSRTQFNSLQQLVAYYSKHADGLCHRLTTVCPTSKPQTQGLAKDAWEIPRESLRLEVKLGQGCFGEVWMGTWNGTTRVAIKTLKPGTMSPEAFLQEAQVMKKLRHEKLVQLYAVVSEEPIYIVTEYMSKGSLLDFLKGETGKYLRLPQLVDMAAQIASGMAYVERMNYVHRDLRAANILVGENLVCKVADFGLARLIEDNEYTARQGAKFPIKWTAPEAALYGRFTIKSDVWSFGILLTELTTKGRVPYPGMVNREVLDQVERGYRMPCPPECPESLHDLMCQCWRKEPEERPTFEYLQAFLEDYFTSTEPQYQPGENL
T19 sequence (Q9Y243 whole entry, the tested form may be a part): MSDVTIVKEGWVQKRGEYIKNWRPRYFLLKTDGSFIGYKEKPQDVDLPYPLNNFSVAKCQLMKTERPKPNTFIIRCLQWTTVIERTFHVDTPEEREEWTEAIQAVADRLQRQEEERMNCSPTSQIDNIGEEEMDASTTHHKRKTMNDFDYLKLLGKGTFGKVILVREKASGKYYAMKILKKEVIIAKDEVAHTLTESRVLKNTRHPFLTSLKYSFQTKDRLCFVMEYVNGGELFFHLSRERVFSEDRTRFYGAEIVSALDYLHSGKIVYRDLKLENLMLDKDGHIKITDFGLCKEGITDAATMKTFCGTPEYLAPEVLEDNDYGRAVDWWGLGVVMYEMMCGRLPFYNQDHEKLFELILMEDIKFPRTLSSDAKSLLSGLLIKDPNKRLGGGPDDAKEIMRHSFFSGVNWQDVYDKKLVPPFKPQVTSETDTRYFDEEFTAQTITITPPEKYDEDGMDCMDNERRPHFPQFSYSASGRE
T3 sequence (P04626 23-1255, species assumed): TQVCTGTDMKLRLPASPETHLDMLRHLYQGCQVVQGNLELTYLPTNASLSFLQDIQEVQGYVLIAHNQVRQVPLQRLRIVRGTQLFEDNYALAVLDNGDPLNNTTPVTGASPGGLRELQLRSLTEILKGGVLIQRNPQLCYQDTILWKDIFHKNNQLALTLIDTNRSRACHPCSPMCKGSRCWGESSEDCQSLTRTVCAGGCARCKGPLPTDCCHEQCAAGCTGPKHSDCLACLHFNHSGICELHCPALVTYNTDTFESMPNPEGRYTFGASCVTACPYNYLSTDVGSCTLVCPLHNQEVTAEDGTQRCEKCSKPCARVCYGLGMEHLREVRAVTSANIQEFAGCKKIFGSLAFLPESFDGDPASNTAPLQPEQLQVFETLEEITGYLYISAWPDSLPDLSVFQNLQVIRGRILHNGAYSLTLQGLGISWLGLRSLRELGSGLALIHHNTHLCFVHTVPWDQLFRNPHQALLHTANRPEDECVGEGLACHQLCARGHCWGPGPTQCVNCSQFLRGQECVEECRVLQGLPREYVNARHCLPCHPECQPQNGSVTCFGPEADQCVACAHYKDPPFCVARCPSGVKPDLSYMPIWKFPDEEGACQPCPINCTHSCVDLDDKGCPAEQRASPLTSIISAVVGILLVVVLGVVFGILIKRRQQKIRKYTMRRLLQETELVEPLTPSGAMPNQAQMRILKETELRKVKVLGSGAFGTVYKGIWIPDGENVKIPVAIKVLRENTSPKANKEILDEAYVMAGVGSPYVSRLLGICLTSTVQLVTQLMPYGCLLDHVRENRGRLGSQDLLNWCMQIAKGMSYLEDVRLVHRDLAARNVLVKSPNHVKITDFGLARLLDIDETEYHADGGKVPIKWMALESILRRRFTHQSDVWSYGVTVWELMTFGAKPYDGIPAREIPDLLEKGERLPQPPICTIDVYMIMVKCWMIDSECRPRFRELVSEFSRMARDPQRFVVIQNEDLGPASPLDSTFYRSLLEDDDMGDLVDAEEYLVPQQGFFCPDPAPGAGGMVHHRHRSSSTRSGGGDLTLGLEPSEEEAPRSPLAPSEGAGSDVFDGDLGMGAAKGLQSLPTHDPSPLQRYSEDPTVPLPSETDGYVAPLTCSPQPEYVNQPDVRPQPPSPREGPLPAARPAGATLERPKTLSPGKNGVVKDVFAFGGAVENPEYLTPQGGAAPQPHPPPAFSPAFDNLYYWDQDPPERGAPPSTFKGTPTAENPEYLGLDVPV
T13 sequence (P17948 27-1338, species assumed): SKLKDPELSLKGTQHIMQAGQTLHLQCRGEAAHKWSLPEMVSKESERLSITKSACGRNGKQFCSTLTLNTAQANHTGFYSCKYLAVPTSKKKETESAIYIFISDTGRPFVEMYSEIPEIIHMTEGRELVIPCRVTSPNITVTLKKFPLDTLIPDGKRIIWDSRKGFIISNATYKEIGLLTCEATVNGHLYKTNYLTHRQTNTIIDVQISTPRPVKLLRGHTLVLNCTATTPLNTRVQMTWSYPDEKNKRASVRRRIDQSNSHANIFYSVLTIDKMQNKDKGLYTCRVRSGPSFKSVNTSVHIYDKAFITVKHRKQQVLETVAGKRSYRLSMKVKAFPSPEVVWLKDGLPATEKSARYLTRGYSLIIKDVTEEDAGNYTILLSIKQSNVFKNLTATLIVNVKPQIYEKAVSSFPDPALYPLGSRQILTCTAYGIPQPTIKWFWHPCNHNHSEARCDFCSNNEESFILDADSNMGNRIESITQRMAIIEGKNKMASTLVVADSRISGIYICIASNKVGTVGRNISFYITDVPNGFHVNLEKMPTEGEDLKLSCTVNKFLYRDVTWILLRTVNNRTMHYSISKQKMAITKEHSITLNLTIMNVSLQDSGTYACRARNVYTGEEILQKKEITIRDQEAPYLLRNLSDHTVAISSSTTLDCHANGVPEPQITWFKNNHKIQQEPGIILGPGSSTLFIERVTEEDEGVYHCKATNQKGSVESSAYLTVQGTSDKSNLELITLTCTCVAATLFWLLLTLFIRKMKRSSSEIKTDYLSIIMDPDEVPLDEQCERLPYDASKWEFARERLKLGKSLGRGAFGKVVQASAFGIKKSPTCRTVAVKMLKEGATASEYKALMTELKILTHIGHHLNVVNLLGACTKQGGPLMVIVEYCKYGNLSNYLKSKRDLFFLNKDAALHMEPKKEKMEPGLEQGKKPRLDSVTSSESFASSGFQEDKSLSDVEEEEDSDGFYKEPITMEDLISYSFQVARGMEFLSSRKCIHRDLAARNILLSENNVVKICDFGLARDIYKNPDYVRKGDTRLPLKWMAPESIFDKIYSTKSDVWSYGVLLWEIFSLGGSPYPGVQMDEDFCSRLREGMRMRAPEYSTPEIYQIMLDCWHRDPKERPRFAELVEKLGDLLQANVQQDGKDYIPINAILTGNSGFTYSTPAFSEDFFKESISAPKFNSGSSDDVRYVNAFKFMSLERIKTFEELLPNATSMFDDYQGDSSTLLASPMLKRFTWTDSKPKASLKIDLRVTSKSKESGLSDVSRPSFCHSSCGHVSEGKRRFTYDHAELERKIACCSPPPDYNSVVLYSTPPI
T17 sequence (P07948 whole entry, species assumed, the tested form may be a part): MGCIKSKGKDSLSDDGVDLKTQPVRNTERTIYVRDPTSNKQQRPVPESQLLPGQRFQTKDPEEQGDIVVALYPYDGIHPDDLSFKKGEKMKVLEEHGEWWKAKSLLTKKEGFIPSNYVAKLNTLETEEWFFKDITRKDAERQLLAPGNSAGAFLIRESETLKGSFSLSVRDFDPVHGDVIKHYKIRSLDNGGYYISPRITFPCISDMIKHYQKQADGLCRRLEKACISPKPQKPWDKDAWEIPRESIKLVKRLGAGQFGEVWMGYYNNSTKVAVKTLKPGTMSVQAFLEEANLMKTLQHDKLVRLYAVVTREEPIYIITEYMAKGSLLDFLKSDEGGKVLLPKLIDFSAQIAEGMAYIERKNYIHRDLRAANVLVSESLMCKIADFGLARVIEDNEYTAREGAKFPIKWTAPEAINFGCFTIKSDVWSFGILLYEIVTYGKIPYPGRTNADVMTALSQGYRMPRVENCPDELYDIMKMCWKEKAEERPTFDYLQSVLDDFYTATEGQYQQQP

Structure (SMILES) | pIC50 [1] | pIC50 [2] | pIC50 [3] | pIC50 [4] | pIC50 [5] | pIC50 [6] | pIC50 [7] | pIC50 [8] | pIC50 [9] | pIC50 [10] | pIC50 [11] | pIC50 [12] | pIC50 [13] | pIC50 [14] | pIC50 [15] | pIC50 [16] | pIC50 [17] | pIC50 [18] | pIC50 [19]
COc1ccc(Nc2ncccc2-c2ncnc(Nc3cc(OC)c(OC)c(OC)c3)n2)c(C)c1 [Compound 1086] | 5.02 to 5.13 | < 5.02 | 5.02 to 5.13 | < 5.02 | < 5.02 | < 5.02 | 5.13 to 5.30 | 5.02 to 5.13 | < 5.02 | < 5.02 | < 5.02 | < 5.02 | 5.13 to 5.30 | < 5.02 | > 6.07 | < 5.02 | < 5.02 | < 5.02 | < 5.02
COc1cc(Nc2ncnc(-n3c(N[C@@H](CO)c4ccccc4)nc4ccccc43)n2)cc(OC)c1OC [Compound 1036] | 5.17 to 5.33 | > 6.11 | 5.33 to 6.11 | 5.33 to 6.11 | > 6.11 | 5.06 to 5.17 | > 6.11 | > 6.11 | < 5.06 | < 5.06 | < 5.06 | 5.33 to 6.11 | > 6.11 | 5.33 to 6.11 | > 6.11 | < 5.06 | > 6.11 | 5.17 to 5.33 | < 5.06
COc1cc(Nc2ncnc(-n3c(NCc4ccc(C)cc4)nc4ccccc43)n2)cc(OC)c1OC [Compound 516] | < 5.04 | 5.04 to 5.15 | < 5.04 | < 5.04 | > 6.09 | < 5.04 | 5.15 to 5.32 | > 6.09 | < 5.04 | < 5.04 | < 5.04 | < 5.04 | 5.15 to 5.32 | < 5.04 | > 6.09 | < 5.04 | < 5.04 | < 5.04 | < 5.04
COc1cc(Nc2ncnc(N(C)c3ccc(Cl)cc3)n2)cc(OC)c1OC [Compound 616] | 5.22 to 6.00 | > 6.00 | 5.22 to 6.00 | 5.22 to 6.00 | 5.22 to 6.00 | 5.22 to 6.00 | > 6.00 | > 6.00 | 5.06 to 5.22 | > 6.00 | < 4.95 | > 6.00 | 5.22 to 6.00 | > 6.00 | > 6.00 | < 4.95 | 5.22 to 6.00 | 5.22 to 6.00 | < 4.95
COc1cc(Nc2ncnc(-n3c(NCc4cccc(C)c4)nc4ccccc43)n2)cc(OC)c1OC [Compound 515] | 5.04 to 5.15 | > 6.09 | < 5.04 | < 5.04 | > 6.09 | < 5.04 | > 6.09 | > 6.09 | < 5.04 | < 5.04 | < 5.04 | < 5.04 | 5.32 to 6.09 | < 5.04 | > 6.09 | < 5.04 | < 5.04 | < 5.04 | < 5.04
COc1cc(Nc2ncnc(-n3c(NCc4ccc(Cl)cc4)nc4ccccc43)n2)cc(OC)c1OC [Compound 944] | < 5.06 | 5.33 to 6.11 | < 5.06 | < 5.06 | 5.33 to 6.11 | 5.06 to 5.17 | < 5.06 | > 6.11 | < 5.06 | < 5.06 | < 5.06 | < 5.06 | 5.33 to 6.11 | < 5.06 | > 6.11 | < 5.06 | 5.17 to 5.33 | < 5.06 | < 5.06
CCN(CC)CCOc1ccc(Nc2ncnc(-n3c(N)nc4ccccc43)n2)cc1OC [Compound 652] | 5.27 to 6.05 | 5.27 to 6.05 | 5.11 to 5.27 | < 5.00 | > 6.05 | > 6.05 | > 6.05 | > 6.05 | < 5.00 | 5.27 to 6.05 | < 5.00 | 5.27 to 6.05 | 5.27 to 6.05 | < 5.00 | > 6.05 | 5.27 to 6.05 | 5.27 to 6.05 | < 5.00 | < 5.00
COc1cc(Nc2ncnc(-n3c(NCc4ccccn4)nc4ccccc43)n2)cc(OC)c1OCCn1ccnn1 [Compound 942] | < 5.10 | > 6.15 | < 5.10 | < 5.10 | > 6.15 | 5.21 to 5.37 | 5.21 to 5.37 | > 6.15 | < 5.10 | < 5.10 | < 5.10 | < 5.10 | > 6.15 | < 5.10 | > 6.15 | < 5.10 | > 6.15 | < 5.10 | < 5.10
COc1cc(Nc2ncnc(-c3cccnc3NCc3ccccc3F)n2)cc(OC)c1OC [Compound 1087] | < 5.01 | 5.12 to 5.28 | < 5.01 | < 5.01 | 5.01 to 5.12 | < 5.01 | 5.12 to 5.28 | 5.28 to 6.06 | < 5.01 | < 5.01 | < 5.01 | < 5.01 | < 5.01 | < 5.01 | 5.28 to 6.06 | < 5.01 | < 5.01 | < 5.01 | < 5.01
NC(=O)c1ccc(Nc2ncnc(-c3cccnc3NCc3ccccc3)n2)cc1 [Compound 1082] | 5.22 to 6.00 | 5.22 to 6.00 | < 4.95 | < 4.95 | < 4.95 | 5.06 to 5.22 | 5.22 to 6.00 | > 6.00 | < 4.95 | 4.95 to 5.06 | 5.22 to 6.00 | < 4.95 | < 4.95 | 5.22 to 6.00 | > 6.00 | < 4.95 | 5.06 to 5.22 | 5.22 to 6.00 | < 4.95
